Results as given in PubChem BioAssay AID256 (DTP/NCI, 2004).
“And” between values parts separate entries of the source, which are not always exact repeats. Equal entries are not always repeated. Inconclusive results and toxic doses are left out.

System: CD2F1 mice, L1210 leukemia ip, survival T/C
Experiment: NCI In Vivo Anticancer Drug Screen. Data for tumor model L1210 Leukemia (intraperitoneal) in CD2F1 (CDF1) mice
Conditions: endpoint: mean survival time, higher = longer survival
Method in brief: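 Tumor-bearing mice (transplanted tumor) were split into treated and vehicle control groups, and the measured endpoint of each treated group was divided by that of its vehicle controls.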

[1] = dose: 100.0 mg/kg/injection, schedule: Q01DX009 (ip), vehicle: saline with Tween-80
[2] = dose: 100.0 mg/kg/injection, schedule: Q04DX003 (ip), vehicle: saline with Tween-80
[3] = dose: 200.0 mg/kg/injection, schedule: Q01DX009 (ip), vehicle: saline with Tween-80
[4] = dose: 200.0 mg/kg/injection, schedule: Q04DX003 (ip), vehicle: saline with Tween-80
[5] = dose: 400.0 mg/kg/injection, schedule: Q04DX003 (ip), vehicle: saline with Tween-80
[6] = dose: 50.0 mg/kg/injection, schedule: Q01DX009 (ip), vehicle: saline with Tween-80
[7] = dose: 100.0 mg/kg/injection, schedule: Q04DX003 (ip), vehicle: Klucel (hydroxypropylcellulose) (HPC)
[8] = dose: 200.0 mg/kg/injection, schedule: Q04DX003 (ip), vehicle: Klucel (hydroxypropylcellulose) (HPC)
[9] = dose: 400.0 mg/kg/injection, schedule: Q04DX003 (ip), vehicle: Klucel (hydroxypropylcellulose) (HPC)
[10] = dose: 50.0 mg/kg/injection, schedule: Q04DX003 (ip), vehicle: saline with Tween-80
[11] = dose: 75.0 mg/kg/injection, schedule: Q01DX009 (ip), vehicle: saline with Tween-80

With `CC(N)C12CC3CC(CC(C3)C1)C2` (configuration not stated) the T/C (dose: 25.0 mg/kg/injection, schedule: Q01DX009 (ip), vehicle: saline) was 117 % of control, the T/C (dose: 50.0 mg/kg/injection, schedule: Q01DX009 (ip), vehicle: saline) was 98 % of control and the T/C (dose: 100.0 mg/kg/injection, schedule: Q01DX009 (ip), vehicle: saline) was 95 % of control.
For `Cc1ccc(NC(=O)c2ccccc2Cl)c(C)c1`, the T/C [1] was 110 % of control, the T/C [2] was 104 % of control and the T/C [3] was 93 % of control. The T/C [4] was 101 % of control, the T/C (dose: 400.0 mg/kg/injection, schedule: Q01DX009 (ip), vehicle: saline with Tween-80) was 98 % of control and the T/C [5] was 97 % of control.
`CSc1nc(Cl)cc(Sc2nc(N)nc3nc[nH]c23)n1` was tested, and the T/C (dose: 18.75 mg/kg/injection, schedule: Q01DX009 (ip), vehicle: Klucel (hydroxypropylcellulose) (HPC)) was 173 % of control, the T/C (dose: 37.5 mg/kg/injection, schedule: Q01DX009 (ip), vehicle: Klucel (hydroxypropylcellulose) (HPC)) was 175 % of control and the T/C (dose: 150.0 mg/kg/injection, schedule: Q01DX009 (ip), vehicle: Klucel (hydroxypropylcellulose) (HPC)) was 97 % of control.
For `O=c1cc[nH]cc1[N+](=O)[O-]`, the T/C [6] was 101 % of control, the T/C [1] was 101 % of control and the T/C (dose: 100.0 mg/kg/injection, schedule: Q04DX003 (ip), vehicle: saline sonified) was 97 % of control. The T/C [3] was 100 % of control and the T/C (dose: 200.0 mg/kg/injection, schedule: Q04DX003 (ip), vehicle: saline sonified) was 95 % of control.
`NC(=O)c1cn(C2OC(CO)C(O)C2O)nc1N` (configuration not stated) was tested, and the T/C (dose: 100.0 mg/kg/injection, schedule: Q01DX005 (ip), vehicle: saline) was 100 % of control and the T/C (dose: 200.0 mg/kg/injection, schedule: Q01DX005 (ip), vehicle: saline) was 105 % of control.
In the case of `COc1c(OC(C)=O)ccc(/C=C2\COC(C)=N2)c1[N+](=O)[O-]`, the T/C [2] is reported as 96 % of control, the T/C [4] is reported as 102 % of control and the T/C [5] is reported as 92 % of control.
In the case of `CCC(C)(O)c1ccccc1` (configuration not stated), the T/C [6] is reported as 103 % of control, the T/C [1] is reported as 100 % of control and the T/C [3] is reported as 95 % of control.
For `CC(=O)C(C(c1ccccc1)N1CCCc2ccccc21)N1CCOCC1` (configuration not stated), the T/C [7] was 98 % of control, the T/C [8] was 101 % of control and the T/C [9] was 108 % of control.
In the case of `Cc1ccc(S(=O)(=O)N(C)C)cc1NC1=NCCO1`, the T/C [10] is reported as 95 % of control, the T/C [2] is reported as 95 % of control and the T/C [4] is reported as 90 % of control. For the same molecule, the T/C [5] was 90 % of control.
With `C[n+]1cccc(C(=O)NCCc2c[nH]c3ccccc23)c1` the T/C (dose: 18.75 mg/kg/injection, schedule: Q01DX009 (ip), vehicle: saline with Tween-80) was 92 % of control, the T/C (dose: 37.5 mg/kg/injection, schedule: Q01DX009 (ip), vehicle: saline with Tween-80) was 93 % of control and the T/C (dose: 37.5 mg/kg/injection, schedule: Q04DX003 (ip), vehicle: acetone) was 95 % of control. For the same molecule, the T/C [11] was 97 % of control and the T/C (dose: 75.0 mg/kg/injection, schedule: Q04DX003 (ip), vehicle: acetone) was 95 % of control.
`C/C(=N/NC(=O)c1ccccc1)c1ccccc1O` was tested, and the T/C (dose: 100.0 mg/kg/injection, schedule: Q01DX009 (ip), vehicle: Klucel (hydroxypropylcellulose) (HPC)) was 92 % of control, the T/C [7] was 97 % of control and the T/C (dose: 200.0 mg/kg/injection, schedule: Q01DX009 (ip), vehicle: Klucel (hydroxypropylcellulose) (HPC)) was 94 % of control. For the same molecule, the T/C [8] was 100 % of control, the T/C (dose: 400.0 mg/kg/injection, schedule: Q01DX009 (ip), vehicle: Klucel (hydroxypropylcellulose) (HPC)) was 94 % of control and the T/C [9] was 96 % of control.
`Nc1ccc([N+](=O)[O-])cn1` was tested, and the T/C [11] was 94 % of control, the T/C [2] was 107 % of control and the T/C (dose: 150.0 mg/kg/injection, schedule: Q01DX009 (ip), vehicle: saline with Tween-80) was 87 % of control. For the same molecule, the T/C [4] was 103 % of control, the T/C (dose: 300.0 mg/kg/injection, schedule: Q01DX009 (ip), vehicle: saline with Tween-80) was 93 % of control and the T/C [5] was 96 % of control.
In the case of `CC1(C(=O)O)CCOC1=O` (configuration not stated), the T/C (dose: 100.0 mg/kg/injection, schedule: Q04DX002 (ip), vehicle: saline) is reported as 102 % of control and the T/C (dose: 200.0 mg/kg/injection, schedule: Q04DX002 (ip), vehicle: saline) is reported as 107 % of control.
In the case of `Cc1c(Cl)ccc(OCC2=NCCN2)c1C`, the T/C (dose: 25.0 mg/kg/injection, schedule: Q04DX002 (ip), vehicle: saline with Tween-80) is reported as 109 % of control, the T/C (dose: 50.0 mg/kg/injection, schedule: Q04DX002 (ip), vehicle: saline with Tween-80) is reported as 97 % of control and the T/C (dose: 100.0 mg/kg/injection, schedule: Q04DX002 (ip), vehicle: saline with Tween-80) is reported as 100 % of control and 102 % of control.
With `Cc1cc(C)c(CCl)cc1CCl` the T/C (dose: 12.5 mg/kg/injection, schedule: Q01DX009 (ip), vehicle: saline with Tween-80) was 100 % of control, the T/C (dose: 25.0 mg/kg/injection, schedule: Q01DX009 (ip), vehicle: saline with Tween-80) was 98 % of control and the T/C [10] was 103 % of control.
